According to ChEMBL document CHEMBL2040736, “Design of potent and selective hybrid inhibitors of the mitotic kinase Nek2: structure-activity relationship, structural biology, and cellular activity” (J Med Chem, 2012):

Assays:
[1] = Inhibition of CH1D incubated for 30 mins prior to substrate addition study done at apparent ATP Km for enzyme
[2] = target: T1, Hepatocyte growth factor receptor (Homo sapiens, UniProt P08581); settings: 1 uM
[3] = target: MAP kinase-activated protein kinase 5 (Homo sapiens) (UniProt Q8IW41); test: Inhibition of PRAK at 1 uM incubated for 30 mins prior to substrate addition study done at apparent ATP Km for enzyme
[4] = target: T2, Serine/threonine-protein kinase Chk2 (Homo sapiens, UniProt O96017); settings: 1 uM
[5] = target: T3, Dual specificity protein kinase TTK (Homo sapiens, UniProt P33981); test: Inhibition of MPS1 by caliper method
T3 sequence (P33981 whole entry): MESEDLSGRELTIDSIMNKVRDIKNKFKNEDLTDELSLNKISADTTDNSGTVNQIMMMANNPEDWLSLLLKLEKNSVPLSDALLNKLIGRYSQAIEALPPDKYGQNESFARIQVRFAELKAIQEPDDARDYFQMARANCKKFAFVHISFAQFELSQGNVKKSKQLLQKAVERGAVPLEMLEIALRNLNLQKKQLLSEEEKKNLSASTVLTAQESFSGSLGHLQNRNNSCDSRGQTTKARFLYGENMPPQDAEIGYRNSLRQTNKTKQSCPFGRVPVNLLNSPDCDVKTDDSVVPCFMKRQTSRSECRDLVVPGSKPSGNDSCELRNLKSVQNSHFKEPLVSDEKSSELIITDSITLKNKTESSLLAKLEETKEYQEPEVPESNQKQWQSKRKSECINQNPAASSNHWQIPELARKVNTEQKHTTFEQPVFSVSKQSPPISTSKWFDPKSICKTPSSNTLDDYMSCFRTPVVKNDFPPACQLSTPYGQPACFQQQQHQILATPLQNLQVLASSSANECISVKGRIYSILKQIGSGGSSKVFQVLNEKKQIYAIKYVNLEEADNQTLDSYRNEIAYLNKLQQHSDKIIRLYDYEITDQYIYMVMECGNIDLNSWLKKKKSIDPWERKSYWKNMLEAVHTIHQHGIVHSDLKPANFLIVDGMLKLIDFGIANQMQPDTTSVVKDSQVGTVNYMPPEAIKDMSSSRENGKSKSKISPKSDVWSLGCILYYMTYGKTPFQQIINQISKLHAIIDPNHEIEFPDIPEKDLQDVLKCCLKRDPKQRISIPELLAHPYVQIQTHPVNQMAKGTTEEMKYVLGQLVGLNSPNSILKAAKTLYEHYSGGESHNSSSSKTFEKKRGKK

[6] = target: T2, Serine/threonine-protein kinase Chk2; test: Inhibition of CHK2 incubated for 30 mins prior to substrate addition study done at apparent ATP Km for enzyme
[7] = target: T4, Aurora kinase A (Homo sapiens, UniProt O14965); test: Inhibition of Aurora A kinase by caliper method
T4 sequence (O14965 whole entry): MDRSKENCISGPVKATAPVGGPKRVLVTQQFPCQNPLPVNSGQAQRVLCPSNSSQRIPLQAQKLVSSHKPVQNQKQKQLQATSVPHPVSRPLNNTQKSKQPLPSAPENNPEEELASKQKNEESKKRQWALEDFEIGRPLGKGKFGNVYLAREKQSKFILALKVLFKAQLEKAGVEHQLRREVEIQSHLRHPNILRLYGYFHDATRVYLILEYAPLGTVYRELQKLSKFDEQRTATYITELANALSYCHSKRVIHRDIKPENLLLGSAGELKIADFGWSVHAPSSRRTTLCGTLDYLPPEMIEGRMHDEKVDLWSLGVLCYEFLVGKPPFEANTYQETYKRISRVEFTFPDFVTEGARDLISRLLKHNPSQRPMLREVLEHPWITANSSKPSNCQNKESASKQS

[8] = target: T5, Proto-oncogene tyrosine-protein kinase Src (Homo sapiens, UniProt P12931); test: Inhibition of SRC incubated for 30 mins prior to substrate addition study done at apparent ATP Km for enzyme
[9] = Inhibition of PKA at 1 uM incubated for 30 mins prior to substrate addition study done at apparent ATP Km for enzyme
[10] = target: Serine/threonine-protein kinase D2 (Homo sapiens) (UniProt Q9BZL6); test: Inhibition of PKD2 at 1 uM incubated for 30 mins prior to substrate addition study done at apparent ATP Km for enzyme
[11] = test system: MCF7; test: Growth inhibition of human MCF7 cells after 92 hrs by CellTiter-Blue assay; format: functional; settings: MCF7, 92 h
[12] = target: Cyclin-dependent kinase 2 (Homo sapiens, UniProt P24941); test: Inhibition of CDK2 by caliper method
[13] = target: Tyrosine-protein kinase Lyn (Homo sapiens, UniProt P07948); test: Inhibition of LYN at 1 uM incubated for 30 mins prior to substrate addition study done at apparent ATP Km for enzyme
[14] = target: T5, Proto-oncogene tyrosine-protein kinase Src; settings: 1 uM
[15] = test system: MDA-MB-231; test: Growth inhibition of human MDA-MB-231 cells after 92 hrs by CellTiter-Blue assay; format: functional; settings: MDA-MB-231, 92 h
[16] = target: T6, Tyrosine-protein kinase Lck (Homo sapiens, UniProt P06239); test: Inhibition of LCK at 1 uM incubated for 30 mins prior to substrate addition study done at apparent ATP Km for enzyme
[17] = target: Aurora kinase A (Homo sapiens) (UniProt O14965); settings: 1 uM
[18] = target: T6, Tyrosine-protein kinase Lck; test: Inhibition of LCK incubated for 30 mins prior to substrate addition study done at apparent ATP Km for enzyme
[19] = target: Protein kinase C zeta type (Homo sapiens) (UniProt Q05513); test: Inhibition of PKCzeta at 1 uM incubated for 30 mins prior to substrate addition study done at apparent ATP Km for enzyme
[20] = test system: HeLa; test: Growth inhibition of human HeLa cells after 92 hrs by CellTiter-Blue assay; format: functional
[21] = target: T7, Tyrosine-protein kinase ABL1 (Homo sapiens, UniProt P00519); test: Inhibition of ABL at 1 uM incubated for 30 mins prior to substrate addition study done at apparent ATP Km for enzyme
[22] = test system: U2OS; test: Growth inhibition of human U2OS cells after 92 hrs by CellTiter-Blue assay; format: functional
[23] = target: RAC-beta serine/threonine-protein kinase (Homo sapiens) (UniProt P31751); test: Inhibition of AKT2 at 1 uM incubated for 30 mins prior to substrate addition study done at apparent ATP Km for enzyme
[24] = target: Serine/threonine-protein kinase D2 (Homo sapiens, UniProt Q9BZL6); test: Inhibition of PKD2 incubated for 30 mins prior to substrate addition study done at apparent ATP Km for enzyme
[25] = target: T7, Tyrosine-protein kinase ABL1; test: Inhibition of ABL at 1 uM
[26] = target: T1, Hepatocyte growth factor receptor; test: Inhibition of MET incubated for 30 mins prior to substrate addition study done at apparent ATP Km for enzyme

T7 sequence (P00519 whole entry): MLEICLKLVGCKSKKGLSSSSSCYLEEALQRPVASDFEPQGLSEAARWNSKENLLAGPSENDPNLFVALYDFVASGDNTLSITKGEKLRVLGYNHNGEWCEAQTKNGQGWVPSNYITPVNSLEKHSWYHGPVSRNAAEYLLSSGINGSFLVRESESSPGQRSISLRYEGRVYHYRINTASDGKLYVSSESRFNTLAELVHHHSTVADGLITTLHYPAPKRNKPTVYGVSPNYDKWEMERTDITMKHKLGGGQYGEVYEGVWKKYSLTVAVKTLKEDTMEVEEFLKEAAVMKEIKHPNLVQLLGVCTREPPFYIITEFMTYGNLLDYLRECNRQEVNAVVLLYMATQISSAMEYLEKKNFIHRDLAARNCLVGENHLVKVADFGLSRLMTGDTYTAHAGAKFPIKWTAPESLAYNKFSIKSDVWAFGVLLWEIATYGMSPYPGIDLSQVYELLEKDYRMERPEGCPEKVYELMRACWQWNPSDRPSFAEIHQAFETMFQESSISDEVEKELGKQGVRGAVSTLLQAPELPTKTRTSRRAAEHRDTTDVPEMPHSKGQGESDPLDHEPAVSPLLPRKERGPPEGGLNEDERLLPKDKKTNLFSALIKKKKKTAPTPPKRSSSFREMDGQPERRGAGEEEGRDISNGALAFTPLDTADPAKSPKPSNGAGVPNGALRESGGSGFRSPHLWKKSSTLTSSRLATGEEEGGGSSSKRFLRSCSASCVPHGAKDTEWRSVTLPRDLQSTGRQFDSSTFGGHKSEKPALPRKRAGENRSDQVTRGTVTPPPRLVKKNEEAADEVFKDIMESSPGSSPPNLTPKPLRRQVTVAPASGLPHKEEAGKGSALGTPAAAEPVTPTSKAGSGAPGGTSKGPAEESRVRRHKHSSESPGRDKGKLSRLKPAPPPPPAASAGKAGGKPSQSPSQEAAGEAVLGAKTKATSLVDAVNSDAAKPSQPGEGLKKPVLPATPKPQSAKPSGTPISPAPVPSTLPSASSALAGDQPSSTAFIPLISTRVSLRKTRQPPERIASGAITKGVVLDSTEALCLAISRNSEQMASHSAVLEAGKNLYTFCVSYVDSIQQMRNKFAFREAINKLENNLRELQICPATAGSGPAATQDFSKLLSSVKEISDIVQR
T1 sequence (P08581 whole entry): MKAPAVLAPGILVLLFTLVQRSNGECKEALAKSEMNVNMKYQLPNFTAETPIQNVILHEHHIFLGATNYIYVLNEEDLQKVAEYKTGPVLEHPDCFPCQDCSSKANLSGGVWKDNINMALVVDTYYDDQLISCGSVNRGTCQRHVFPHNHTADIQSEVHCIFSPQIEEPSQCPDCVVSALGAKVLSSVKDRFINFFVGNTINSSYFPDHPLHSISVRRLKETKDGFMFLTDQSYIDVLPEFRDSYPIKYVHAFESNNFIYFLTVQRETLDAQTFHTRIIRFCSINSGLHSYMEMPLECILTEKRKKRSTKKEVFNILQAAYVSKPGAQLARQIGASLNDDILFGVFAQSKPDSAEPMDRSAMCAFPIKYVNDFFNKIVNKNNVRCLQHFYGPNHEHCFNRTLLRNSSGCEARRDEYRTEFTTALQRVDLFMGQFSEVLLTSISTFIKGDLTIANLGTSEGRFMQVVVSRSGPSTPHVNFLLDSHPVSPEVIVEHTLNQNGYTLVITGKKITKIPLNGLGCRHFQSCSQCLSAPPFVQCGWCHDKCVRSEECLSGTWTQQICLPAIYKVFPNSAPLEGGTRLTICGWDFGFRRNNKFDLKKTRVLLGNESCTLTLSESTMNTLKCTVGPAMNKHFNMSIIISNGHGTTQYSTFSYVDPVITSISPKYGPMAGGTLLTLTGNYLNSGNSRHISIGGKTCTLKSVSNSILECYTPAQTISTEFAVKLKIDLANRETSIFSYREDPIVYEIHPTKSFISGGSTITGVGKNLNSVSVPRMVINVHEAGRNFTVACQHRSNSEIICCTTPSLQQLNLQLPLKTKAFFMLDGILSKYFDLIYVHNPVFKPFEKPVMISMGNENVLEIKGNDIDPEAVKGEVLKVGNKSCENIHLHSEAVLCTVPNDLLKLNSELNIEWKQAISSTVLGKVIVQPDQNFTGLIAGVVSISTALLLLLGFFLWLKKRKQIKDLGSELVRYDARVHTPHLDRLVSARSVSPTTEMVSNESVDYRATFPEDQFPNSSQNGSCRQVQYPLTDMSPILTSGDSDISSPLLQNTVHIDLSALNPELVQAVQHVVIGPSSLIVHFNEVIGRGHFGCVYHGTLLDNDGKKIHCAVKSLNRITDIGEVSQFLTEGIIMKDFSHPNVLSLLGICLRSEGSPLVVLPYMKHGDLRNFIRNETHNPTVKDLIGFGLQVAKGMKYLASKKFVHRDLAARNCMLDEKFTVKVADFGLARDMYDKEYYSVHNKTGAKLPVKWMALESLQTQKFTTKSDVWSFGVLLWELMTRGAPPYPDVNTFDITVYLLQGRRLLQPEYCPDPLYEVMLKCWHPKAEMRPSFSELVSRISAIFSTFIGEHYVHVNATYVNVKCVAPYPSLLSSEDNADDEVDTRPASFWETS
T2 sequence (O96017 whole entry): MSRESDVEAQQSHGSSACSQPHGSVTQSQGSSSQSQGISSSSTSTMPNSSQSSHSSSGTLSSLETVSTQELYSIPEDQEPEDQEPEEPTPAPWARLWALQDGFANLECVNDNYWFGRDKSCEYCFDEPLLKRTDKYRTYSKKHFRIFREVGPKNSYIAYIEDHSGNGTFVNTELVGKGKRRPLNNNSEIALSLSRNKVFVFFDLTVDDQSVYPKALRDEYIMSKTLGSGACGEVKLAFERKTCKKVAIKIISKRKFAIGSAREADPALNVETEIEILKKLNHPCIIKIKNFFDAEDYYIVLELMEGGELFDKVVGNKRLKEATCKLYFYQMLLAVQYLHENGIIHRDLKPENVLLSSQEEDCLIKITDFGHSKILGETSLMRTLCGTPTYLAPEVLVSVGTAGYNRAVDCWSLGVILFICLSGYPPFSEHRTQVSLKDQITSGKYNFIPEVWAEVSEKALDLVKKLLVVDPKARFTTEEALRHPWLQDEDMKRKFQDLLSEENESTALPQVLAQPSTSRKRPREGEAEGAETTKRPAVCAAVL
T5 sequence (P12931 2-536 limits assumed): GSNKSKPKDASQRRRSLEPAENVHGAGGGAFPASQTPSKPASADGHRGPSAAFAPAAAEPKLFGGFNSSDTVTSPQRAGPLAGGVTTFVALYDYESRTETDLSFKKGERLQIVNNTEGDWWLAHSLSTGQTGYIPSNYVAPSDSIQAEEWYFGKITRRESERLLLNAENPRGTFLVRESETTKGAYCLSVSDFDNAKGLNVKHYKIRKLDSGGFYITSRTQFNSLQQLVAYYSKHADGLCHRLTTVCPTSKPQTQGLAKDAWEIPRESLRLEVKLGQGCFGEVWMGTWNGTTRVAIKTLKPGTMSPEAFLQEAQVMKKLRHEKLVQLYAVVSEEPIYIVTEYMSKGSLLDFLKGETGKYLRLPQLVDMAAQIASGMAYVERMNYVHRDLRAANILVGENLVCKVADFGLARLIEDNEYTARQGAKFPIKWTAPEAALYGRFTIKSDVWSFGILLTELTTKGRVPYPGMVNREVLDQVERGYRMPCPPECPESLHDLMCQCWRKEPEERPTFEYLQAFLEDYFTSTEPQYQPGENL
Serine/threonine-protein kinase D2, sequence (Q9BZL6 whole entry): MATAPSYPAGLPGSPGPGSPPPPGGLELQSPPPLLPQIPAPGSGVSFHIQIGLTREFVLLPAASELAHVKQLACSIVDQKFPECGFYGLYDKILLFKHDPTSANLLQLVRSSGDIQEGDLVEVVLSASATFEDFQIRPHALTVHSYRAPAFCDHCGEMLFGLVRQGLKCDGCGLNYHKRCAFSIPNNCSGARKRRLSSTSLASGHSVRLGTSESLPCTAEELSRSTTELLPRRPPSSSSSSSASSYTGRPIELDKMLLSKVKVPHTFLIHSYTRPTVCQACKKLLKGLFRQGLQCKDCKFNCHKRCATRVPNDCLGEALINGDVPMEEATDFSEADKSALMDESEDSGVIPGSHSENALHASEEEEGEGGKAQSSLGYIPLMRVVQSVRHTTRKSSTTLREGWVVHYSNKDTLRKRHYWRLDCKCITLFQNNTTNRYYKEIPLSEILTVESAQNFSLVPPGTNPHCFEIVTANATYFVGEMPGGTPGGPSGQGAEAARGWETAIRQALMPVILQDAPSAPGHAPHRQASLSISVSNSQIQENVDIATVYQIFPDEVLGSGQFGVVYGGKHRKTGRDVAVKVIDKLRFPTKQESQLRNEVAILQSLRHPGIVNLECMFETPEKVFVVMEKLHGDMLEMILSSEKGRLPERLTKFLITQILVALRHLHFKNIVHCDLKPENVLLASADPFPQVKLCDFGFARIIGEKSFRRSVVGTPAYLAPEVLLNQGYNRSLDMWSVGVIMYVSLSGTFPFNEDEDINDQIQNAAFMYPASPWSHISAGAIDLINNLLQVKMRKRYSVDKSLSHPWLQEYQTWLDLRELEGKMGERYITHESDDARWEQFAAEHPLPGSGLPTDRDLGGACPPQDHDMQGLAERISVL
Serine/threonine-protein kinase D2 (Homo sapiens), sequence (Q9BZL6 whole entry): as above
MAP kinase-activated protein kinase 5 (Homo sapiens), sequence (Q8IW41 whole entry): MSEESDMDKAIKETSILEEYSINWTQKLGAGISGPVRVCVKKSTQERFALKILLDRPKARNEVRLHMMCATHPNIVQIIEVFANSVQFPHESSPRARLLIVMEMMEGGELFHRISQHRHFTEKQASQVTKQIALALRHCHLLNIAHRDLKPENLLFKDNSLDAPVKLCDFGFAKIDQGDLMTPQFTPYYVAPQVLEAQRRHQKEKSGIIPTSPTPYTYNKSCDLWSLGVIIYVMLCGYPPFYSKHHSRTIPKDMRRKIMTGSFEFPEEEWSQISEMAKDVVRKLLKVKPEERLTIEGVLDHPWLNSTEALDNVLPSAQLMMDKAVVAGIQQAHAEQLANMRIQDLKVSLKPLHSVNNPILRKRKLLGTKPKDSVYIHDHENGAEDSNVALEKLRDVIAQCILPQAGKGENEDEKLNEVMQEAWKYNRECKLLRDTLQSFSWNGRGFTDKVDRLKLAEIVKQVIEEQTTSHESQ

## C[C@H](/C=C\C(F)(F)F)Oc1cc(-c2cc(-c3cc(CN(C)C)cs3)cnc2N)ccc1C(N)=O
[1]
  IC50: 430 nM
[2]
  inhibition: 46%
[3]
  inhibition: 7%
[4]
  inhibition: 32%
[5]
  IC50: 8.47 µM
[6]
  IC50: 2000 nM
[7]
  IC50: 4.94 µM
[8]
  IC50: 840 nM
[9]
  inhibition: 12%
[10]
  inhibition: 77%
[11]
  GI50: 2170 nM
[12]
  IC50: 4.57 µM
[13]
  inhibition: 43%
[14]
  inhibition: 51%
[15]
  GI50: 4.16 µM
[16]
  inhibition: 89%
[17]
  inhibition: 19%
[18]
  IC50: 110 nM
[19]
  inhibition: 12%
[20]
  GI50: 590 nM
[21]
  inhibition: 46%
[22]
  GI50: 1820 nM
[23]
  inhibition: 0%
[24]
  IC50: 330 nM
[25]
  IC50: 1110 nM
[26]
  IC50: 1170 nM
